The subject of one data set is Rattus norvegicus. As to the kind of experiment: Volume of distribution at steady state in rat at 10 mg/kg, po. The format is ADME, organism-based. Details: dose 10 mg/kg, route oral. As to conditions: in vivo.
Data set [1] is described as follows: Cmax in rat at 10 mg/kg, po. It is filed as ADME, organism-based. The arrangement: dose 10 mg/kg, route oral. As to conditions: in vivo.
The nature of data set [2]: Oral bioavailability in rat at 10 mg/kg. It is filed as ADME, organism-based. As to conditions: in vivo.
Data set [3] in a line: Drug level in rat brain at 3 mg/kg, po after 150 mins. It is filed as ADME, organism-based. The arrangement: dose 3 mg/kg, route oral. As to conditions: read-out: Drug uptake.
Data set [4] is described as follows: Drug level in rat plasma at 5.6 mg/kg, po after 150 mins. It is filed as ADME, organism-based. The following applies: read-out: Drug uptake. Details: dose 5.6 mg/kg, route oral.
Data set [5] is described as follows: AUC in rat at 10 mg/kg, po. The format is ADME, organism-based. Details: dose 10 mg/kg, route oral. As to conditions: plasma.
Data set [6] is described as follows: Volume of distribution at steady state in rat at 2 mg/kg, iv. The format is ADME, organism-based. Details: dose 2 mg/kg, route intravenous. The following applies: in vivo, read-out: Vdss.
The nature of data set [7]: Drug level in rat brain at 5.6 mg/kg, po after 150 mins. The format is ADME, organism-based. The arrangement: dose 5.6 mg/kg, route oral. The following applies: read-out: Drug uptake.
Data set [8] can be described thus: Plasma concentration in guinea pig at 10 mg/kg, iv after 5 mins. It is filed as ADME, organism-based, Cavia porcellus. The arrangement: dose 10 mg/kg, route intravenous.
The nature of data set [9]: Cmax in dog at 10 mg/kg, po. As to conditions: in vivo.
The nature of data set [10]: Drug level in rat plasma at 3 mg/kg, po after 150 mins. The format is ADME, organism-based. The arrangement: dose 3 mg/kg, route oral. The following applies: read-out: Drug uptake.
For data set [11], the system named is Canis familiaris. As to the kind of experiment: Oral bioavailability in dog at 10 mg/kg. As to conditions: in vivo.
Data set [12] is described as follows: Plasma concentration in Sprague-Dawley rat at 1 to 30 mg/kg, po after 4 hrs. The format is ADME, organism-based. Details: dose 1-30 mg/kg, route oral.
A short description of data set [13]: Drug level in rat plasma at 10 mg/kg, po after 150 mins. The format is ADME, organism-based. The arrangement: dose 10 mg/kg, route oral. As to conditions: read-out: Drug uptake.
The subject of data set [14] is Canis familiaris. As to the kind of experiment: AUC in dog at 10 mg/kg, po. The following applies: in vivo.
The nature of data set [15]: Drug level in rat brain at 10 mg/kg, po after 150 mins. As to conditions: read-out: Drug uptake. It is filed as ADME, organism-based. Details: dose 10 mg/kg, route oral.
Data set [16] is described as follows: Volume of distribution at steady state in dog at 2 mg/kg, iv. As to conditions: in vivo, read-out: Vdss. The arrangement: dose 2 mg/kg, route intravenous. It is filed as ADME, organism-based, Canis lupus familiaris.

The structures appear in SMILES notation.

Turning to `FC(F)(F)c1ccccc1-c1ccc2nc(C3=NOC4(CCCCC4)C3)[nH]c2c1`, the Vdss in the data set with Rattus norvegicus was found to be 13.6 L/kg. The compound also showed a Cmax in data set [1] of 230 ng/mL.

Turning to `FC(F)(F)c1ccccc1-c1cc(C(F)(F)F)c2[nH]c(C3=NOC4(CCCCC4)C3)nc2c1`, the bioavailability in [2] amounted to 96%. The concentration at […] in data set [3] came out at 175 ng/g; in data set [4], 662 ng/mL; in data set [7], 414 ng/g; in data set [10] it was 295 ng/mL; in [13] it was 1040 ng/mL; in [15], 638 ng/g. For the same compound, the area under the curve (AUC) in data set [5] amounted to 12300 ng·h/mL; in the data set on Canis familiaris [14], 5252 ng·h/mL. For the same compound, the Cmax worked out at 1260 ng/mL in [1] and 1640 ng/mL in [9]. For the same compound, the results for the Vd in data set [6] and in [16] were 2.92 L/kg and 4.43 L/kg, respectively. In data set [8], the concentration at 5 min was 18200 ng/mL. Further, the F in the data set on Canis familiaris [11] turned out to be 45%. The compound also returned a concentration at 4 h in [12] of 254 ng/mL.

The values above are taken from ChEMBL document CHEMBL1649073, “Design and optimization of benzimidazole-containing transient receptor potential melastatin 8 (TRPM8) antagonists” (J Med Chem, 2011).
